The results in this text go back to ChEMBL document CHEMBL3856183, “Structure-activity relationships of 3-O-β-chacotriosyl oleanane-type triterpenoids as potential H5N1 entry inhibitors” (Eur J Med Chem, 2016).

Data set [1] can be described thus: cells. The note with it: Influenza A virus, MDCK.
Data set [2] can be described thus: Selectivity index, ratio of CC50 for MDCK cells to IC50 for Influenza A virus H5 subtype (A/Thailand/Kan353/2004(H5N1)) pseudovirus infected in MDCK cells co-infected with HA/HIV. In kind it is functional.
Data set [3] can be described thus: Cytotoxicity against MDCK cells assessed as cell death after 2 days by MTT assay. In kind it is toxicity, cell-based, Canis lupus familiaris. The note with it: dog. Background: Tetrazolium dyes change colour on reduction, which living cells bring about.
The nature of data set [4]: (§1) Binding affinity to influenza A virus A/Vietnam/1194/2004(H5N1) Hemagglutinin 2 subunit by surface plasmon resonance analysis. (Surface plasmon resonance follows binding to a sensor surface in real time, without labels.)
Data set [5] relates to Influenza A virus (A/Vietnam/1194/2004(H5N1)). The description is as §1.
The nature of data set [6]: (§2) Binding affinity to Influenza A virus A/Vietnam/1194/2004(H5N1) Hemagglutinin by surface plasmon resonance analysis.
Data set [7] concerns Influenza A virus (A/Vietnam/1194/2004(H5N1)). The description is as §2.

As a reminder, the IC50 is the concentration needed to halve the response being measured. One may read the CC50 as the concentration giving 50% cytotoxicity. `CC1(C)CC[C@]2(C(=O)O)CC[C@]3(C)C(=CC[C@@H]4[C@@]5(C)CC[C@H](O)C(C)(C)[C@@H]5CC[C@]43C)[C@@H]2C1` [OLEANOLIC_ACID] gave a 50% inhibitory concentration (IC50) in data set [1] above 50 µM. For the same compound, the “Ratio CC50/IC50” value in data set [2] is below 1. For the same compound, in data set [3], the 50% cytotoxic concentration (CC50) at 48 h came out at 23.1 µM.
For the compound `CCOC(=O)[C@]12CCC(C)(C)C[C@H]1C1=CC[C@@H]3[C@@]4(C)CC[C@H](O[C@@H]5O[C@H](CO)[C@@H](O[C@@H]6O[C@@H](C)[C@H](O)[C@@H](O)[C@H]6O)[C@H](O)[C@H]5O[C@@H]5O[C@@H](C)[C@H](O)[C@@H](O)[C@H]5O)C(C)(C)[C@@H]4CC[C@@]3(C)[C@]1(C)CC2`, the IC50 in data set [1] worked out at 5.2 µM. For the same compound, the “Ratio CC50/IC50” value in data set [2] is on record as 7.2. The 50% cytotoxic concentration (CC50) at 48 h in data set [3] amounted to 37.4 µM.
On to `C[C@@H]1O[C@@H](O[C@H]2[C@H](O[C@H]3CC[C@]4(C)[C@H]5CC=C6[C@@H]7CC(C)(C)CC[C@]7(C(=O)OC7CCCC7)CC[C@@]6(C)[C@]5(C)CC[C@H]4C3(C)C)O[C@H](CO)[C@@H](O[C@@H]3O[C@@H](C)[C@H](O)[C@@H](O)[C@H]3O)[C@@H]2O)[C@H](O)[C@H](O)[C@H]1O`, for which the IC50 in data set [1] was determined as 4.8 µM. In data set [2], the “Ratio CC50/IC50” value was 12.1. Besides, in data set [3], the CC50 at 48 h stood at 58.2 µM.
For the compound `COC(=O)[C@@]1(C)CC[C@]2(C)CC[C@]3(C)C(=CC(=O)[C@@H]4[C@@]5(C)CC[C@H](O[C@@H]6O[C@H](CO)[C@@H](O[C@@H]7O[C@@H](C)[C@H](O)[C@@H](O)[C@H]7O)[C@H](O)[C@H]6O[C@@H]6O[C@@H](C)[C@H](O)[C@@H](O)[C@H]6O)C(C)(C)[C@@H]5CC[C@]43C)[C@@H]2C1`, in data set [1], it took 4.1 µM to reach half-maximal inhibition (IC50). Besides, in data set [2], the “Ratio CC50/IC50” value amounted to 8.3. The CC50 at 48 h in data set [3] is 33.8 µM.
Taken in the same sequence, the figures for `CCCCCOC(=O)[C@]12CCC(C)(C)C[C@H]1C1=CC[C@@H]3[C@@]4(C)CC[C@H](O[C@@H]5O[C@H](CO)[C@@H](O[C@@H]6O[C@@H](C)[C@H](O)[C@@H](O)[C@H]6O)[C@H](O)[C@H]5O[C@@H]5O[C@@H](C)[C@H](O)[C@@H](O)[C@H]5O)C(C)(C)[C@@H]4CC[C@@]3(C)[C@]1(C)CC2` were 6.52 µM, 6.9 and 45.2 µM.
On to `C[C@@H]1O[C@@H](O[C@H]2[C@H](O[C@H]3CC[C@]4(C)[C@H]5CC=C6[C@@H]7CC(C)(C)CC[C@]7(C(=O)OCc7ccccc7)CC[C@@]6(C)[C@]5(C)CC[C@H]4C3(C)C)O[C@H](CO)[C@@H](O[C@@H]3O[C@@H](C)[C@H](O)[C@@H](O)[C@H]3O)[C@@H]2O)[C@H](O)[C@H](O)[C@H]1O`, for which half-maximal inhibition in data set [1] (IC50) was put at 5.62 µM. Moreover, the “Ratio CC50/IC50” value in data set [2] was found to be 13.4. Besides, in data set [3], the CC50 at 48 h is 75.4 µM.
`COC(=O)[C@]12CCC(C)(C)C[C@H]1C1=CC[C@@H]3[C@@]4(C)CC[C@@H](O[C@@H]5O[C@H](CO)[C@@H](O[C@@H]6O[C@@H](C)[C@H](O)[C@@H](O)[C@H]6O)[C@H](O)[C@H]5O[C@@H]5O[C@@H](C)[C@H](O)[C@@H](O)[C@H]5O)C(C)(C)[C@@H]4CC[C@@]3(C)[C@]1(C)CC2` showed a concentration for half-maximal inhibition (IC50) in data set [1] of 5.26 µM. Moreover, the “Ratio CC50/IC50” value in data set [2] is above 38. For the same compound, the CC50 at 48 h in data set [3] was above 200 µM.
The compound `COC[C@]12CCC(C)(C)C[C@H]1C1=CC[C@@H]3[C@@]4(C)CC[C@H](O[C@@H]5O[C@H](CO)[C@@H](O[C@@H]6O[C@@H](C)[C@H](O)[C@@H](O)[C@H]6O)[C@H](O)[C@H]5O[C@@H]5O[C@@H](C)[C@H](O)[C@@H](O)[C@H]5O)C(C)(C)[C@@H]4CC[C@@]3(C)[C@]1(C)CC2` returned an IC50 in data set [1] above 20 µM. Besides, the “Ratio CC50/IC50” value in data set [2] is below 1. Besides, the CC50 at 48 h in data set [3] stood at 16.8 µM.
As for `CCN(CC)C(=O)[C@]12CCC(C)(C)C[C@H]1C1=CC[C@@H]3[C@@]4(C)CC[C@H](O[C@@H]5O[C@H](CO)[C@@H](O[C@@H]6O[C@@H](C)[C@H](O)[C@@H](O)[C@H]6O)[C@H](O)[C@H]5O[C@@H]5O[C@@H](C)[C@H](O)[C@@H](O)[C@H]5O)C(C)(C)[C@@H]4CC[C@@]3(C)[C@]1(C)CC2`, the midpoint of inhibition in data set [1], the IC50, lay at 2.48 µM. For the same compound, in data set [2], the “Ratio CC50/IC50” value came to 27.8. For the same compound, the CC50 at 48 h in data set [3] amounted to 69 µM.
For orientation: Kd means the constant that tells how readily two partners part at equilibrium. Read a low Kd as higher affinity. For `C[C@@H]1O[C@@H](O[C@H]2[C@H](O[C@H]3CC[C@]4(C)[C@H]5CC=C6[C@@H]7CC(C)(C)CC[C@]7(C(=O)N(C)C)CC[C@@]6(C)[C@]5(C)CC[C@H]4C3(C)C)O[C@H](CO)[C@@H](O[C@@H]3O[C@@H](C)[C@H](O)[C@@H](O)[C@H]3O)[C@@H]2O)[C@H](O)[C@H](O)[C@H]1O`, in data set [1], half-maximal inhibition (IC50) was put at 2.36 µM. For the same compound, in data set [2], the “Ratio CC50/IC50” value was 29.7. In data set [3], the half-maximal cytotoxic concentration (CC50) at 48 h is 70 µM. Also, the Kd in data set [4] came out at 0.0112 µM; in data set [6] it was 0.00446 µM. The Activity result in data set [5] and in data set [7] was “Dose-dependent effect” each time.
Regarding `C[C@@H]1O[C@@H](O[C@H]2[C@H](O[C@H]3CC[C@]4(C)[C@H]5CC=C6[C@@H]7CC(C)(C)CC[C@]7(C(=O)O)CC[C@@]6(C)[C@]5(C)CC[C@H]4C3(C)C)O[C@H](CO)[C@@H](O[C@@H]3O[C@@H](C)[C@H](O)[C@@H](O)[C@H]3O)[C@@H]2O)[C@H](O)[C@H](O)[C@H]1O`, the IC50 in data set [1] came to 9.39 µM. Moreover, in data set [2], the “Ratio CC50/IC50” value came out at 2. In data set [3], the CC50 at 48 h came out at 18.7 µM.
On to `C[C@@H]1O[C@@H](O[C@H]2[C@H](O[C@H]3CC[C@]4(C)[C@H]5CC=C6[C@@H]7CC(C)(C)CC[C@]7(C=O)CC[C@@]6(C)[C@]5(C)CC[C@H]4C3(C)C)O[C@H](CO)[C@@H](O[C@@H]3O[C@@H](C)[C@H](O)[C@@H](O)[C@H]3O)[C@@H]2O)[C@H](O)[C@H](O)[C@H]1O`, for which the midpoint of inhibition in data set [1], the IC50, lay at 8.58 µM. Further, the “Ratio CC50/IC50” value in data set [2] is listed as 2.5. Besides, the CC50 at 48 h in data set [3] is 21.1 µM.
In data set [1], `COC(=O)[C@]12CCC(C)(C)C[C@H]1C1=CC(=O)[C@@H]3[C@@]4(C)CC[C@H](O[C@@H]5O[C@H](CO)[C@@H](O[C@@H]6O[C@@H](C)[C@H](O)[C@@H](O)[C@H]6O)[C@H](O)[C@H]5O[C@@H]5O[C@@H](C)[C@H](O)[C@@H](O)[C@H]5O)C(C)(C)[C@@H]4CC[C@@]3(C)[C@]1(C)CC2` registered an IC50 of 5.8 µM. Further, the “Ratio CC50/IC50” value in data set [2] amounted to 3.1. The CC50 at 48 h in data set [3] amounted to 17.9 µM.
Consider `C[C@@H]1CC[C@@]2(OC1)O[C@H]1C[C@H]3[C@@H]4C[C@H](O)[C@H]5C[C@@H](O[C@@H]6O[C@H](CO)[C@@H](O[C@@H]7O[C@@H](C)[C@H](O)[C@@H](O)[C@H]7O)[C@H](O)[C@H]6O[C@@H]6O[C@@H](C)[C@H](O)[C@@H](O)[C@H]6O)CC[C@]5(C)[C@H]4CC[C@]3(C)[C@H]1[C@@H]2C`, for which the IC50 in data set [1] is 7.92 µM. For the same compound, the “Ratio CC50/IC50” value in data set [2] was found to be 2.3. In addition, the CC50 at 48 h in data set [3] turned out to be 18.3 µM.
Compound `COC(=O)[C@]12CCC(C)(C)C[C@H]1C1=CC[C@@H]3[C@@]4(C)CC[C@H](O[C@@H]5O[C@H](CO)[C@@H](O[C@@H]6O[C@@H](C)[C@H](O)[C@@H](O)[C@H]6O)[C@H](O)[C@H]5O[C@@H]5O[C@@H](C)[C@H](O)[C@@H](O)[C@H]5O)C(C)(C)[C@@H]4CC[C@@]3(C)[C@]1(C)CC2` yielded an IC50 in data set [1] of 4.74 µM. For the same compound, the “Ratio CC50/IC50” value in data set [2] is 3.6.
Regarding `O=C(NCCN1CCCCC1)c1cc(F)cc(C(F)(F)F)c1`, the “Ratio CC50/IC50” value in data set [2] stood at 332.3.
